Source: patent US10870647B2, “Imidazopyridine derivative, method for preparing same, and pharmaceutical composition containing same as active ingredient for preventing or treating cancer” (DAEGU-GYEONGBUK MEDICAL INNOVATION FOUNDATION, priority 2016, dated 2020)
Where two headings read alike, the source gives them in different places.

Assays:
Type in all cases: cell-based
[1] = tested on: RET (LC2/ad-CDC6); experiment: Cancer cell proliferation inhibition, MTS assay, 72 hours
Summary of the method: (§1)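 Read-out was OD450 after a 2 h MTS/PMS incubation at 37° C, following 72 h compound treatment. Cells had been plated at 3,000 cells/well and cultured 24 h beforehand; compound was serially diluted from a top of 50 μM with 0.05% DMSO as vehicle. IC50 derived from three data sets.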

[2] = tested on: FYN (MCP-1); experiment: as above
Summary of the method: as §1

[3] = tested on: MDA-MB-231; experiment: Real time cell proliferation, IncuCyte ZOOM, 72 hours; details: Homo sapiens, MDA-MB-231, 72 h
[4] = tested on: A375; experiment: Cancer cell proliferation inhibition, CCK-8, 72 hours
Summary of the method: (§2)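 A375 cells (2×10^3/well) attached overnight, then received 9 three-fold dilutions (0.0015-10 μM). K562 and Ba/F3-T315I (1×10^4/well) were given 9-point series (3-fold and 5-fold respectively), final 0-10 μM. After 72 h at 37°C, CCK-8 was added for 2 h; blank-subtracted OD450 gave IC50.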

[5] = molecular target: T1, T315I (Ba/F3) (Homo sapiens, UniProt P00519, T315I, cells depend on it); experiment: as above; details: read-out: T315I (Ba/F3) IC50
T1 construct: fused on or other part: P11274 (Breakpoint cluster region protein)
Summary of the method: as §2

[6] = tested on: K562; experiment: as above
Summary of the method: as §2

[7] = tested on: SK-MEL-28; experiment: Cancer cell proliferation inhibition, MTS assay, 72 hours; details: Homo sapiens
Summary of the method: as §1

[8] = tested on: Huh7; experiment: as above; details: Homo sapiens, Huh-7
Summary of the method: as §1

[9] = tested on: M-NFS-60; experiment: Cancer cell proliferation inhibition, CCK-8, 72 hours
Description: MTS assay was performed to evaluate the cancer cell proliferation inhibition (cancer cell apoptosis) effect of the compounds of examples of the present invention. Particularly, the assay was performed using the cancer cell lines GIST-T1, GIST-T1/816, GIST-430, GIST-430/654, GIST-R1, GIST-R3, M-NFS-60, RetParental (Ba/F3), Retwt (Ba/F3), RetV804M (Ba/F3), RET (LC2/ad-CDC6), FYN (MCP-1), FYN (FN), MDA-MB-231, Huh7, K562, T315I(Ba/F3), SK-MEL-28 and A375. Cell culture was performed using a medium suitable for each cell line.
M-NFS-60 cell line was cultured in the complete growth medium prepared by adding 10% FBS, 0.05 mM 2-mercaptoethanol and 62 ng of human M-CSF to RPMI. When the confluence reached 80% in T-75 flask, the cells were collected in a 50 ml tube for seeding, followed by centrifugation at 800 rpm for 5 minutes. The cells were suspended in 10 mL of growth medium. The cell number was counted by using a hematocytometer to determine the necessary cell number and the medium volume for seeding. The cells were seeded in a 96-well plate at the density of 20000 cells/well (200 μL/well), followed by stabilization in a 37° C. CO2 incubator, while the compounds of the present invention were prepared. The compounds of the present invention were serially diluted with DMSO at the ratio of 1/3 with setting the maximum concentration at 1968 nM, which were loaded in a new V-bottom 96-well plate, resulting in the preparation of total 11 concentrations including the DMSO control. The cells that had been placed in the incubator were taken out, to which the compounds of the present invention were added (2 μl/well). The plate treated with the compounds was cultured in a 37° C. CO2 incubator for 72 hours. 72 hours later, the plate treated with the compounds was taken out, to which CCK-8 solution was treated (20 μl/well). After well mixing, the plate was further cultured in a 37° C. CO2 incubator for 2 hours. Then, OD450 was measured by using a microplate reader. To obtain accurate results, the wells displaying bubbles were eliminated from the measurement.

IC50 ([1]; 72 h) [nM] | IC50 [2] [nM] | IC50 [3] [nM] | IC50 ([4]; Homo sapiens, A-375, 72 h) [nM] | GI50 [5] [nM] | IC50 ([6]; Homo sapiens, K562, 72 h) [nM] | IC50 [7] [nM] | IC50 [8] [nM] | IC50 [9] [nM] | IC50 [1] [nM] | IC50 [4] [nM] | IC50 [6] [nM] | SMILES
> 10 | 9520 | > 10000 | > 10000 | 195 | 16 | – | – | – | – | – | – | Cc1ccc(C(=O)Nc2ccc(CN3CCC(F)(F)CC3)c(C(F)(F)F)c2)cc1C#Cc1cnc2c(Nc3cnn(C)c3)cccn12 [Example 52, N-(4-((4,4-difluoropiperidin-1-yl)methyl)-3-(trifluoromethyl)phenyl)-4-methyl-3-((8-((1-methyl-1H-pyrazol-4-yl)amino)imidazo[1,2-a]pyridin-3-yl)ethynyl)benzamide]
< 100 | 1330 | 1560 | 3360 | 234 | 14 | 1450 | 1750 | 1060 | – | – | – | Cc1ccc(Nc2cccn3c(C#Cc4cc(C(=O)Nc5ccc(CN6CCN(C)CC6)c(C(F)(F)F)c5)ccc4C)cnc23)nc1 [Example 20, 4-methyl-N-(4-((4-methylpiperazin-1-yl)methyl)-3-(trifluoromethyl)phenyl)-3-((8-((5-methylpyridin-2-yl)amino)imidazo[1,2-a]pyridin-3-yl)ethynyl)benzamide]
– | 890 | 456 | 406 | 60.4 | < 1 | 1150 | 107 | 64.2 | – | – | – | Cc1ccc(C(=O)Nc2ccc(CN3CCC(N(C)C)C3)c(C(F)(F)F)c2)cc1C#Cc1cnc2c(Nc3cnn(C)c3)cccn12 (stereo not drawn) [Example 32, N-(4-((3-(dimethylamino)pyrrolidin-1-yl)methyl)-3-(trifluoromethyl)phenyl)-4-methyl-3-((8-((1-methyl-1H-pyrazol-4-yl)amino)imidazo[1,2-a]pyridin-3-yl)ethynyl)benzamide]
< 1000 | 1500 | 3060 | 4460 | 60.2 | < 1 | > 10000 | 2020 | 56.9 | – | – | – | Cc1ccc(C(=O)Nc2cccc(C(F)(F)F)c2)cc1C#Cc1cnc2c(Nc3cnn(CCCN(C)C)c3)cccn12 [Example 27, 3-((8-((1-(3-(dimethylamino)propyl)-1H-pyrazol-4-yl)amino)imidazo[1,2-a]pyridin-3-yl)ethynyl)-4-methyl-N-(3-(trifluoromethyl)phenyl)benzamide]
– | 1120 | 1110 | 1280 | 247 | < 1 | – | 66 | – | – | – | – | Cc1ccc(C(=O)Nc2ccc(CN3CCC(N(C)C)C3)c(C(F)(F)F)c2)cc1C#Cc1cnc2c(Nc3cnn(CCCN(C)C)c3)cccn12 (stereo not drawn) [Example 35, 3-((8-((1-(3-(dimethylamino)propyl)-1H-pyrazol-4-yl)amino)imidazo[1,2-a]pyridin-3-yl)ethynyl)-N-(4-((3-(dimethylamino)pyrrolidin-1-yl)methyl)-3-(trifluoromethyl)phenyl)-4-methylbenzamide]
– | 770 | 212 | 152 | 54.2 | < 1 | 482 | 64 | 63.6 | – | – | – | Cc1ccc(C(=O)Nc2ccc(CN3CCN(C)[C@H](C)C3)c(C(F)(F)F)c2)cc1C#Cc1cnc2c(Nc3cnn(C)c3)cccn12 [Example 31, (R)—N-(4-((3,4-dimethylpiperazin-1-yl)methyl)-3-(trifluoromethyl)phenyl)-4-methyl-3-((8-((1-methyl-1H-pyrazol-4-yl)amino)imidazo[1,2-a]pyridin-3-yl)ethynyl)benzamide]
< 10 | 270 | 342 | 142 | 39 | < 1 | 917 | 73.8 | – | – | – | – | CCN1CCN(Cc2ccc(NC(=O)c3ccc(C)c(C#Cc4cnc5c(Nc6cnn(CC)c6)cccn45)c3)cc2C(F)(F)F)CC1 [Example 23, 3-((8-((1-ethyl-1H-pyrazol-4-yl)amino)imidazo[1,2-a]pyridin-3-yl)ethynyl)-N-(4-((4-ethylpiperazin-1-yl)methyl)-3-(trifluoromethyl)phenyl)-4-methylbenzamide]
– | 1870 | 320 | 132 | 82.4 | < 1 | – | 89 | 46 | – | – | – | Cc1ccc(NC(=O)c2ccc(CN3CCN(C)CC3)c(C(F)(F)F)c2)cc1C#Cc1cnc2c(Nc3cnn(C)c3)cccn12 [Example 80, N-(4-methyl-3-((8-((1-methyl-1H-pyrazol-4-yl)amino)imidazo[1,2-a]pyridin-3-yl)ethynyl)phenyl)-4-((4-methylpiperazin-1-yl)methyl)-3-(trifluoromethyl)benzamide]
< 10 | 320 | 318 | 140 | 37.5 | < 1 | 803 | 91 | 56.2 | – | – | – | CCn1cc(Nc2cccn3c(C#Cc4cc(C(=O)Nc5ccc(CN6CCN(C)CC6)c(C(F)(F)F)c5)ccc4C)cnc23)cn1 [Example 22, 3-((8-((1-ethyl-1H-pyrazol-4-yl)amino)imidazo[1,2-a]pyridin-3-yl)ethynyl)-4-methyl-N-(4-((4-methylpiperazin-1-yl)methyl)-3-(trifluoromethyl)phenyl)benzamide]
> 10 | 1170 | 268 | 172 | 58.6 | < 1 | – | – | 45.3 | – | – | – | CN1CCN(Cc2ccc(NC(=O)c3ccc(F)c(C#Cc4cnc5c(Nc6cnn(C)c6)cccn45)c3)cc2C(F)(F)F)CC1 [Example 61, 4-fluoro-3-((8-((1-methyl-1H-pyrazol-4-yl)amino)imidazo[1,2-a]pyridin-3-yl)ethynyl)-N-(4-((4-methylpiperazin-1-yl)methyl)-3-(trifluoromethyl)phenyl)benzamide]
– | 3130 | 963 | – | 102 | – | 717 | 30 | – | < 100 | 292 | 5 | Cc1ccc(C(=O)Nc2ccc(CN3CCN(C)[C@H](C)C3)c(C(F)(F)F)c2)cc1C#Cc1cnc2c(Nc3cnn(C(C)C)c3)cccn12 [Example 29, (R)—N-(4-((3,4-dimethylpiperazin-1-yl)methyl)-3-(trifluoromethyl)phenyl)-3-((8-((1-isopropyl-1H-pyrazol-4-yl)amino)imidazo[1,2-a]pyridin-3-yl)ethynyl)-4-methylbenzamide]
> 10 | 1470 | 289 | 229 | 34.8 | < 1 | – | – | 21.3 | – | – | – | CN1CCN(Cc2ccc(NC(=O)c3cccc(C#Cc4cnc5c(Nc6cnn(C)c6)cccn45)c3)cc2C(F)(F)F)CC1 [Example 60, 3-((8-((1-methyl-1H-pyrazol-4-yl)amino)imidazo[1,2-a]pyridin-3-yl)ethynyl)-N-(4-((4-methylpiperazin-1-yl)methyl)-3-(trifluoromethyl)phenyl)benzamide]
– | 2040 | 444 | 452 | 156 | < 1 | – | 82 | 32.1 | – | – | – | CCN1CCN(Cc2ccc(NC(=O)c3ccc(C)c(C#Cc4cnc5c(Nc6cnn(CCCN(C)C)c6)cccn45)c3)cc2C(F)(F)F)CC1 [Example 33, 3-((8-((1-(3-(dimethylamino)propyl)-1H-pyrazol-4-yl)amino)imidazo[1,2-a]pyridin-3-yl)ethynyl)-N-(4-((4-ethylpiperazin-1-yl)methyl)-3-(trifluoromethyl)phenyl)-4-methylbenzamide]
